{"source": "patent US20140360727A1", "about": "“REMEDIATION OF ASPHALTENE-INDUCED PLUGGING OF AN OIL-BEARING FORMATION” (SHELL OIL COMPANY, priority 2013, published 2014)", "type_in_all_cases": "physicochemical", "key": {"[1]": {"assay": "SARA analysis of bitumen samples extracted from oil sands by each solvent", "method": "The bitumen samples extracted at 30° C. from each oil sands sample were evaluated by SARA analysis to determine the saturates, aromatics, resins, and asphaltenes composition of the bitumen samples extracted by each solvent."}, "[2]": {"assay": "Time required to entirely dissolve naturally occurring tar mat material", "conditions": "DMS versus A150, both experiments", "method": "Two experiments were conducted on a naturally occurring tar mat material recovered from an oil-bearing formation to compare the rate of dissolution of the tar mat material using dimethyl sulfide and A150, a commercially available solvent comprised of a mixture of aromatic hydrocarbons that is commonly used to dissolve tar mats. A naturally occurring tar mat material recovered from an oil-bearing formation at a depth of 4690 meters and at a formation temperature of 50° C. was utilized as the tar mat material for the comparison.\nIn the first experiment, two samples of DMS solvent and two samples of A150 solvent were individually mixed with the tar mat material at ambient temperature and pressure, where the volume (ml) to weight (g) ratio of each solvent sample to the tar mat material was approximately 100:1. The length of time required to entirely dissolve the tar mat material was measured and recorded.\nIn the second experiment, four samples of DMS solvent and four samples of A150 solvent were individually mixed with the tar mat material at ambient temperature and pressure, where the volume (ml) to weight (g) ratio of each solvent sample to the tar mat material was approximately 10:1. The length of time required to entirely dissolve the tar mat material was measured and recorded."}, "[3]": {"assay": "Extraction of mined oil sands with solvents (cyclic contact and drain)", "conditions": "10 C and 30 C; FIGS. 4 and 5 and Table 1", "method": "Each oil sands sample was weighed and placed in a cellulose extraction thimble that was placed on a porous polyethylene support disk in a jacketed glass cylinder with a drip rate control valve. Each oil sands sample was then extracted with a selected solvent at a selected temperature (10° C. or 30° C.) in a cyclic contact and drain experiment, where the contact time ranged from 15 to 60 minutes. Fresh contacting solvent was applied and the cyclic extraction repeated until the fluid drained from the apparatus became pale brown in color.\nThe extracted fluids were stripped of solvent using a rotary evaporator and thereafter vacuum dried to remove residual solvent. […] The residual solids and extraction thimble were air dried, weighed, and then vacuum dried."}}, "note": "Read-outs that look alike come from different tables or passages of the source."}
{"compound": "S=C=S", "note": "[Carbon Disulfide, carbon disulfide]", "values": [{"measurement": "Aromatics, oil composition of extracted bitumen", "setting": "[1]; bitumen extracted at 30 C", "result": 41.89, "unit": "Normalized Weight Percent"}, {"measurement": "Asphaltenes, oil composition of extracted bitumen", "setting": "[1]; bitumen extracted at 30 C", "result": 13.85, "unit": "Normalized Weight Percent"}, {"measurement": "Resins, oil composition of extracted bitumen", "setting": "[1]; bitumen extracted at 30 C", "result": 25.49, "unit": "Normalized Weight Percent"}, {"measurement": "Saturates, oil composition of extracted bitumen", "setting": "[1]; bitumen extracted at 30 C", "result": 18.77, "unit": "Normalized Weight Percent"}]}
{"compound": "ClC(Cl)Cl", "note": "[Chloroform, chloroform]", "values": [{"measurement": "Aromatics, oil composition of extracted bitumen", "setting": "[1]", "result": 43.56, "unit": "Normalized Weight Percent"}, {"measurement": "Asphaltenes, oil composition of extracted bitumen", "setting": "[1]", "result": 14.86, "unit": "Normalized Weight Percent"}, {"measurement": "Resins, oil composition of extracted bitumen", "setting": "[1]", "result": 25.94, "unit": "Normalized Weight Percent"}, {"measurement": "Saturates, oil composition of extracted bitumen", "setting": "[1]; bitumen extracted at 30 C", "result": 15.64, "unit": "Normalized Weight Percent"}]}
{"compound": "CSC", "note": "[Dimethyl Sulfide, dimethyl sulfide]", "values": [{"measurement": "Rate of tar mat dissolution relative to A150", "setting": "[2]", "result": "not less than 1.4 times"}, {"measurement": "Aromatics, oil composition of extracted bitumen", "setting": "[1]; bitumen extracted at 30 C", "result": 47.07, "unit": "Normalized Weight Percent"}, {"measurement": "Asphaltenes, oil composition of extracted bitumen", "setting": "[1]; bitumen extracted at 30 C", "result": 13.19, "unit": "Normalized Weight Percent"}, {"measurement": "Effectiveness for extraction of asphaltenes from oil sands (SARA)", "setting": "[1]; bitumen extracted at 30 C", "result": "excellent miscibility properties"}, {"measurement": "Resins, oil composition of extracted bitumen", "setting": "[1]; bitumen extracted at 30 C", "result": 24.25, "unit": "Normalized Weight Percent"}, {"measurement": "Saturates, oil composition of extracted bitumen", "setting": "[1]; bitumen extracted at 30 C", "result": 15.49, "unit": "Normalized Weight Percent"}, {"measurement": "Recovery of bitumen from oil sand material versus best known fluids", "setting": "[3]", "result": "comparable"}]}
{"compound": "C1CCOC1", "note": "[Tetrahydrofuran, tetrahydrofuran]", "values": [{"measurement": "Aromatics, oil composition of extracted bitumen", "setting": "[1]; bitumen extracted at 30 C", "result": 45.24, "unit": "Normalized Weight Percent"}, {"measurement": "Asphaltenes, oil composition of extracted bitumen", "setting": "[1]; bitumen extracted at 30 C", "result": 14.27, "unit": "Normalized Weight Percent"}, {"measurement": "Resins, oil composition of extracted bitumen", "setting": "[1]; bitumen extracted at 30 C", "result": 24.38, "unit": "Normalized Weight Percent"}, {"measurement": "Saturates, oil composition of extracted bitumen", "setting": "[1]; bitumen extracted at 30 C", "result": 16.11, "unit": "Normalized Weight Percent"}]}
{"compound": "Cc1ccccc1C", "note": "[o-Xylene, o-xylene]", "values": [{"measurement": "Aromatics, oil composition of extracted bitumen", "setting": "[1]; bitumen extracted at 30 C", "result": 46.39, "unit": "Normalized Weight Percent"}, {"measurement": "Asphaltenes, oil composition of extracted bitumen", "setting": "[1]; bitumen extracted at 30 C", "result": 13.96, "unit": "Normalized Weight Percent"}, {"measurement": "Resins, oil composition of extracted bitumen", "setting": "[1]; bitumen extracted at 30 C", "result": 22.28, "unit": "Normalized Weight Percent"}, {"measurement": "Saturates, oil composition of extracted bitumen", "setting": "[1]; bitumen extracted at 30 C", "result": 17.37, "unit": "Normalized Weight Percent"}]}
